One compound from US20240024273A1, “TOPICAL ADMINISTRATION OF 2-(DIETHYLAMINO)ETHYL 2-(4-ISOBUTYLPHENYL)PROPRIONATE FOR TREATMENT OF DISEASES” (TECHFIELDS PHARMA CO., LTD., priority 2020, published 2024) can be followed below.

A short description of data set [1]: In vitro half-life in plasma. In kind it is in vitro ADME.
The next data set deals with Acetic Acid Induced Pain. The experiment in a line: Acetic acid induced pain (writhing). In kind it is in vivo, ICR mice.
The test system of a further data set is LPS induced fever. The experiment in a line: LPS induced fever model. In kind it is in vivo, SD Rats. The note with it: 30 and 90 mg/kg; 4 and 6 hour time points.
The test system of data set [2] is Adjuvant-induced arthritis. The experiment in a line: Adjuvant-induced arthritis. The note with it: 10, 30 and 90 mg/kg daily, topical. Type of data set: in vivo, Lewis rats.
The test system of data set [3] is Osteoarthritis Induced by Transection of the Anterior Cruciate Ligament (ACL). The experiment in a line: Osteoarthritis induced by transection of the anterior cruciate ligament (I), treatment 4-10 weeks post-surgery. In kind it is in vivo, SD Rats. To be noted: transdermal; did not reach statistical significance.

With `CCN(CC)CCOC(=O)C(C)c1ccc(CC(C)C)cc1` (stereo not shown) [2-(diethylamino)ethyl 2-(4-isobutylphenyl)propionate], the “fraction metabolized to ibuprofen in any human tissue (except skin)” value in data set [1] is reported as > 99.9%. Further, in data set [1] (in plasma, read-out: in vitro T1/2), the half-life is ~4 min. Also, the “inhibitory effect compared with Vehicle” value with Acetic Acid Induced Pain (high dose) is 2-(4-isobutylphenyl)propionate showed significant inhibitory effect. The inhibitory effect with Acetic Acid Induced Pain (low dose) was 2-(4-isobutylphenyl)propionate did not show any inhibitory effect in this. For the same compound, the LPS induced fever entry in the data set on LPS induced fever is “LPS induced fever was attenuated by middle (30 mg/kg) and high”. Moreover, the arthritis entry in data set [2] was “significantly inhibited arthritis”. Also, the “severity of osteoarthritic degeneration (histopathology)” value in data set [3] is “showed recognizable reduction in the severity of osteOArthritic”.
